The values below come from paper PMC12833730, “Discovery of a First‐in‐Class Covalent Allosteric SHP1 Inhibitor with Immunotherapeutic Activity” (Angewandte Chemie (International Ed. in English), 2025).

As a reminder, the IC50 is the concentration at which inhibition is half-maximal.

The target in assay [1] is T1, STEP (Homo sapiens, UniProt P54829).
T1 construct: STEP, residues 258-539; made in house; host or cells: E. coli BL21(DE3)
Put plainly: PTP panel IC50, 60-min preincubation. It counts as biochemical. An excerpt:
(§1) Building on the results from the SAR “by‐catalog” study, the following medicinal chemistry effort was prioritized on a systematic survey of the central phenyl scaffold, the sulfonamide linker, and the distal aryl moiety with the goal of a multiparameter optimization of potency and selectivity for SHP1 inhibition as well as drug‐like properties such as aqueous solubility and cell permeability. Additionally, given the crucial requirement for targeted covalent inhibitors to maintain tempered reactivity that enables selective target engagement and reduces cross‐reactivity to by‐standing nucleophiles in the cellular milieu,^[ [74], [75] ^] the medicinal chemistry campaign also sought to lower SHP1 covalent inhibitor reactivity with GSH and cytotoxicity. Careful assessment and evaluation of the SAR and other desirable drug‐like attributes of all synthesized molecules led to the identification of M029 (Figure 2a and Figure S2D, manuscript in preparation). […] To determine the selectivity of M029 for SHP1, we measured the IC50 value for M029‐mediated inhibition of a number of PTPs after a 60‐min preincubation. […] To assess potential direct interactions between SHP1 and M029, we utilized the thermal shift assay to measure the thermal stability of SHP1 in the presence of M029. […] To corroborate the covalent interaction between SHP1 and M029, a single SHP1‐M029 covalent adduct was observed by electrospray protein mass spectrometry when SHP1 was incubated with M029 (Figure 2e). […] This is in line with the expectation that SHP1 inactivation by M029 occurs through nucleophilic substitution of the chlorine from the chloroacetamide warhead.
(§2) To further confirm the time-dependent inhibition and determine the IC50 of acquired hits, repurchased compounds from Enamine were serially diluted in a 96-well plate, followed by the addition of proteins at 200 nM. After 10-minute and 60-minute preincubation, 2 µL of the mixture was transferred into 100 µM 6,8-Difluoro-4-Methylumbelliferyl Phosphate (DiFMUP, Invitrogen, cat# D6567) at a final volume of 200 µL. The reaction was allowed to proceed for 5 minutes and quenched by the addition of 40 µl of a 160 µM solution of bpV(Phen) (Sigma-Aldrich, cat# SML0889). The fluorescence signal was measured using a CLARIOstar Plus Microplate Spectrophotometer (BMG Labtech) using excitation and emission wavelengths of 340 nm and 450 nm, respectively. Data were fitted using Prism GraphPad 10.1.1.

In assay [2] the target is Ssu72 (Homo sapiens, UniProt Q9NP77). The assay is described as follows: PTP panel IC50, 60-min preincubation. It counts as biochemical.
Text: as §1, §2

The target of assay [3] is PP5 (Homo sapiens, UniProt P53041). The assay is described as follows: PTP panel IC50, 60-min preincubation. It counts as biochemical.
Text: as §1, §2

Assay [4] deals with VHR (Homo sapiens, UniProt P51452). Put plainly: PTP panel IC50, 60-min preincubation. It counts as biochemical.
Text: as §1, §2

For assay [5], the target named is T2, PEST (Homo sapiens, UniProt Q05209).
T2 construct: PTP-PEST, residues 5-304; made in house; host or cells: E. coli BL21(DE3)
Put plainly: PTP panel IC50, 60-min preincubation. It is filed as biochemical.
Text: as §1, §2

Assay [6] concerns the target T3, TCPTP (Homo sapiens, UniProt P17706).
T3 construct: TC-PTP, residues 1-387; made in house; host or cells: E. coli BL21(DE3)
The assay is described as follows: PTP panel IC50, 60-min preincubation. It counts as biochemical.
Text: as §1, §2

The target of assay [7] is T4, CD45 (Homo sapiens, UniProt P08575).
T4 construct: CD45, residues 620-1236; made in house; host or cells: E. coli BL21(DE3)
Put plainly: PTP panel IC50, 60-min preincubation. It counts as biochemical.
Text: as §1, §2

In assay [8] the target is T5, FAP1 (Homo sapiens, UniProt Q12923).
T5 construct: FAP1, residues 2124-2485; made in house; host or cells: E. coli BL21(DE3)
The assay is described as follows: PTP panel IC50, 60-min preincubation. It counts as biochemical.
Text: as §1, §2

Assay [9] addresses T6, HePTP (Homo sapiens, UniProt P35236).
T6 construct: HePTP, residues 22-360; made in house; host or cells: E. coli BL21(DE3)
The assay is described as follows: PTP panel IC50, 60-min preincubation. It counts as biochemical.
Text: as §1, §2

Assay [10] deals with PEZ (Homo sapiens, UniProt Q15678). Put plainly: PTP panel IC50, 60-min preincubation. It counts as biochemical.
Text: as §1, §2

For assay [11], the system named is LCK, PLCγ and ERK1/2 phosphorylation in Jurkat T cells. The assay is described as follows: TCR-LCK signaling immunoblot. It counts as cell-based. The settings on record: dose response. How it is done: Supernatants from lysed cells were reduced, treated with iodoacetamide to cap thiol residues, and digested by trypsin for bottom‐up proteomics analysis. […] LCK is the direct substrate of SHP1 and ERK1/2, and PLCγ is the downstream effector protein of LCK‐mediated TCR signaling. […] Statistical analyses were performed with Graphpad Prism software 10.4.2 through the one‐way ANOVA test using Turkey post‐hoc comparison. ****p < 0.0001 was considered significant.
To further confirm M029 cellular target engagement, we investigated the effect of M029 on T cell function. SHP1 plays a negative role in T cells, and deletion of SHP1 in T cells lowers the activation threshold and enhances antitumor immunity.^[ [30], [31], [32], [33] ^] Mechanistically, SHP1 attenuates T cell receptor (TCR) signaling via dephosphorylation of the lymphocyte‐specific protein tyrosine kinase LCK.^[ [31], [84], [85], [86] ^] T cell activation leads to increased expression and secretion of interleukin 2 (IL‐2)^[ [87] ^] while the removal of SHP1 in T cells enhances IL‐2 production, cell proliferation, and cytolysis capacity.^[ [30], [32] ^] Accordingly, we sought to assess the impact of targeting SHP1 with M029 on TCR‐LCK signaling and T cell activation. […] M029 also dose‐dependently promoted IL‐2 production (Figure 4c). […] These findings corroborate that the observed increase in LCK phosphorylation and its downstream signaling indeed resulted from SHP1 inhibition by M029.
Immunoblotting: Cultured cells were lysed with ice-cold lysis buffer (50 mM Tris, pH 8.0, 150 mM NaCl, 10% Glycerol, 1% Triton-X-100) supplied with phosphatase inhibitor (Bimake) and protease inhibitor mixture (Roche Applied Science). Equal amounts of protein were resolved by SDS-PAGE, transferred to a nitrocellulose membrane, and subjected to immunoblotting. […]

Entries after “also recorded” stand apart in the source; their conditions may differ.

T4 sequence (P08575 620-1236, species assumed): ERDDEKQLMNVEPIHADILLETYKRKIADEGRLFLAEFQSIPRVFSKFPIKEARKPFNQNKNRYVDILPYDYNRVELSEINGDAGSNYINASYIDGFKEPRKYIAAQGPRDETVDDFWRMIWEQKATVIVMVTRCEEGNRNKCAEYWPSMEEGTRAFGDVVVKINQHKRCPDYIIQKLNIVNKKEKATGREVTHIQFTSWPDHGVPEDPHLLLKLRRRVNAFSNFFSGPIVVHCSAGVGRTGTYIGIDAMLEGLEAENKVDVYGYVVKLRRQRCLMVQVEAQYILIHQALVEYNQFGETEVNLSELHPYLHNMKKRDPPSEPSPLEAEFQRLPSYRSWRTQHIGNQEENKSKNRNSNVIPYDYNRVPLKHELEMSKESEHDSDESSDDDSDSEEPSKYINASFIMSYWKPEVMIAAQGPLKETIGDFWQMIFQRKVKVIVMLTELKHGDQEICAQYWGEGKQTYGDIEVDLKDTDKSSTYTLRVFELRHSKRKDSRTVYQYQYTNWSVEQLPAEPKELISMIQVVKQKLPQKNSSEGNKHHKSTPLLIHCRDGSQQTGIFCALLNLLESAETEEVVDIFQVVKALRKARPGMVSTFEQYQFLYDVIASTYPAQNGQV
Sequence of VHR (P51452 whole entry, species assumed): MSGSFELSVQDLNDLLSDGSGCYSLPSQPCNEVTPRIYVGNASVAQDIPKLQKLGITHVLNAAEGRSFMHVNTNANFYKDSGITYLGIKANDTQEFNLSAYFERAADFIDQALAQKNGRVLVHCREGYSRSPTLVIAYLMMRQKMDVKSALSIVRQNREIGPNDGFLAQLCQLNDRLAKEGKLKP
T1 sequence (P54829 282-563, species assumed): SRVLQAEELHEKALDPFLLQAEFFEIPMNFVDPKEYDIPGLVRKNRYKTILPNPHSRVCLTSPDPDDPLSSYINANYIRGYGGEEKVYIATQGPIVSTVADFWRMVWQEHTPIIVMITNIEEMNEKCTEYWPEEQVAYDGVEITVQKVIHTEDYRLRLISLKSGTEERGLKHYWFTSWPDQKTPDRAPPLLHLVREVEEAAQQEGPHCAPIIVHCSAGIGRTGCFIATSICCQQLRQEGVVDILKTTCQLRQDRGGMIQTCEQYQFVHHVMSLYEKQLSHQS
T3 sequence (P17706 1-387 isoform P17706-2): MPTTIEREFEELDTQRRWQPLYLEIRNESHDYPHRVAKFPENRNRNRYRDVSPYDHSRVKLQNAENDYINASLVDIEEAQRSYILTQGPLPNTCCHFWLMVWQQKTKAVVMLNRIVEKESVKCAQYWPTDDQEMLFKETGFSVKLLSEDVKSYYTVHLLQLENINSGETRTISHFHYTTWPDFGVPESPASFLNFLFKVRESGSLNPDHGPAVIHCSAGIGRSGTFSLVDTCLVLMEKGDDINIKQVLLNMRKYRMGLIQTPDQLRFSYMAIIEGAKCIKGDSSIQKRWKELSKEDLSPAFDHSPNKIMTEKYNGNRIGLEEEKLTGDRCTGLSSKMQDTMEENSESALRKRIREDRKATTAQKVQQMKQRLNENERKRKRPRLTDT
Sequence of PEZ (Q15678 whole entry, species assumed): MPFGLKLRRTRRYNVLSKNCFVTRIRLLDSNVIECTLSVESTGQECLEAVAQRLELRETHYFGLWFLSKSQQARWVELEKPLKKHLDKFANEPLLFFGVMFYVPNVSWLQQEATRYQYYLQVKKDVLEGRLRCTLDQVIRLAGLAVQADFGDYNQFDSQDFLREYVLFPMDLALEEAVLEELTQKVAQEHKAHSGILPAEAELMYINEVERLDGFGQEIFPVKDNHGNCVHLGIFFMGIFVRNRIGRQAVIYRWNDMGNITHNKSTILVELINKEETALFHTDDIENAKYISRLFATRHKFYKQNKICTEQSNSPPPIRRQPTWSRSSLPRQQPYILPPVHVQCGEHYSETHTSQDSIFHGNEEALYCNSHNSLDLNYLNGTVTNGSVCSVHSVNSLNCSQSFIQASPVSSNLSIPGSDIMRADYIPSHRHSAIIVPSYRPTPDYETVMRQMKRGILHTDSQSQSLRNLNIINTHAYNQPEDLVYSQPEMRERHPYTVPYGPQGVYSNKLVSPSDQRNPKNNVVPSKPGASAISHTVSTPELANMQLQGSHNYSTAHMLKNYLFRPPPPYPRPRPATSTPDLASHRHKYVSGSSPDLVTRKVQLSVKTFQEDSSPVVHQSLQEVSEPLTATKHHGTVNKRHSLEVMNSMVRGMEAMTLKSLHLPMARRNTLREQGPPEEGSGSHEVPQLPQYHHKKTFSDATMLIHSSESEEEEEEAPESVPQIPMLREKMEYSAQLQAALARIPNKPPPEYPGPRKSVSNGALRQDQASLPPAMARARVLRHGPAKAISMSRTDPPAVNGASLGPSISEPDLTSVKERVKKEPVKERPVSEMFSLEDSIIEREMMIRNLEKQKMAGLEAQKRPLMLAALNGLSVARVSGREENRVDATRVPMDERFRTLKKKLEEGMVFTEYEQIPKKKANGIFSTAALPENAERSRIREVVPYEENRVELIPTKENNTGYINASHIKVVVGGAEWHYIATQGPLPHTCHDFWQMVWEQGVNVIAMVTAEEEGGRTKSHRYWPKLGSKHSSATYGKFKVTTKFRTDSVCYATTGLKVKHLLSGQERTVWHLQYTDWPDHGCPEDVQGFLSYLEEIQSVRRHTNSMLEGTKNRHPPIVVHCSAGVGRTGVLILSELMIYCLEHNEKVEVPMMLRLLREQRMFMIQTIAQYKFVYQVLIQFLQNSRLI
T5 sequence (Q12923 2124-2485): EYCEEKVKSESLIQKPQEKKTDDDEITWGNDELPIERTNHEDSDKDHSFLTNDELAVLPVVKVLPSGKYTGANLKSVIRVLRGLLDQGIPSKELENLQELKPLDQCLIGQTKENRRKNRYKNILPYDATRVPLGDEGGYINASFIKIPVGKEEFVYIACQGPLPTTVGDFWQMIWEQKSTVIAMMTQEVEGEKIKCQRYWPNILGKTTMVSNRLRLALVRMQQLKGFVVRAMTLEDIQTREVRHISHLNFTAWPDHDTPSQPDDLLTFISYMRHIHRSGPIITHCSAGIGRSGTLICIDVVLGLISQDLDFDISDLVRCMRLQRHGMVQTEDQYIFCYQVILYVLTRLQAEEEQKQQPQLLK
T2 sequence (Q05209 5-304): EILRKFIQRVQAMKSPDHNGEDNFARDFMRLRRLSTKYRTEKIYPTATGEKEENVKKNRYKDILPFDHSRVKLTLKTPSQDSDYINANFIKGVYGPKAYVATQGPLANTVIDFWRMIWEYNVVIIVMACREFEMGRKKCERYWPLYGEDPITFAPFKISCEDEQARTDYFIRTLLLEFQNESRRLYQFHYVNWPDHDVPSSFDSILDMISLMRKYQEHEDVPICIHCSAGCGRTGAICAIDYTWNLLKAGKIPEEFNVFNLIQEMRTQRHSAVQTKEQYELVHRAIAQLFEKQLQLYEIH
Sequence of Ssu72 (Q9NP77 whole entry, species assumed): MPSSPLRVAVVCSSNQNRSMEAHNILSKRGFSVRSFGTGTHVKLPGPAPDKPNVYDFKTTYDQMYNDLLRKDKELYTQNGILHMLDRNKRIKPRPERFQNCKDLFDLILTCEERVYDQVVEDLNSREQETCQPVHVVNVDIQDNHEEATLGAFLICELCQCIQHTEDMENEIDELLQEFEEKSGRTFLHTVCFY
Sequence of PP5 (P53041 whole entry): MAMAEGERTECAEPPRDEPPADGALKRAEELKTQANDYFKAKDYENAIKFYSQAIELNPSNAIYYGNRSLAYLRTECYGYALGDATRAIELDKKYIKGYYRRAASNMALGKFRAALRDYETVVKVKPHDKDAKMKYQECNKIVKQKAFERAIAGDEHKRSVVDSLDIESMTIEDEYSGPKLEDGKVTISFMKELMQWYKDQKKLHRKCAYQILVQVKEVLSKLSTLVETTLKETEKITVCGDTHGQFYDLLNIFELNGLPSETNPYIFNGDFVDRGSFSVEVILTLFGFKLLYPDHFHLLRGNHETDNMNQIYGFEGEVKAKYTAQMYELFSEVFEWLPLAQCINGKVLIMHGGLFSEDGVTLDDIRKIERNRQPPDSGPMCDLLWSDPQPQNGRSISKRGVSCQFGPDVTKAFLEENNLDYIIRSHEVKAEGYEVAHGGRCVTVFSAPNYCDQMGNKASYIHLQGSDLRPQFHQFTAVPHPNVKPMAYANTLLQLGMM
T6 sequence (P35236 22-360): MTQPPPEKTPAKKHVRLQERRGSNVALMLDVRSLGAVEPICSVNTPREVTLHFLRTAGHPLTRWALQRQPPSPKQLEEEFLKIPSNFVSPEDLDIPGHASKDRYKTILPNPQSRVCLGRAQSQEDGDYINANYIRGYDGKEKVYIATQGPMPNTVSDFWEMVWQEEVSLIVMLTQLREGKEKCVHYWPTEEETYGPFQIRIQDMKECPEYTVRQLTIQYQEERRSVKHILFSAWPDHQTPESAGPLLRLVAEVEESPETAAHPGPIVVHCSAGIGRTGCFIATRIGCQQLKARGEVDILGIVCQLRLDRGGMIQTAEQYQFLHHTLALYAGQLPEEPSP

As for `N#Cc1ccsc1NS(=O)(=O)c1ccc(NC(=O)CCl)cc1` [M029, 2-Chloro-N-(4-(N-(3-cyanothiophen-2-yl)sulfamoyl)phenyl)acetamide], the IC50 is above 200 µM in assay [1]; above 200 µM in assay [2]; above 200 µM in [3]; 180 ± 46.8 µM in [4]; above 200 µM in assay [5]; 150 ± 31.1 µM in assay [6]. The IC50 is 139 ± 38.5 µM in [7], above 200 µM in assay [8], above 200 µM in assay [9] and 172 ± 19.3 µM in assay [10]. Also, the “TCR-mediated phosphorylation of LCK, PLCγ and ERK1/2” value in assay [11] was “upregulation; also recorded: dose dependently increased”.
